Values after ≈ are worked out from the molar mass of the structure shown. Like-named read-outs stand apart in the source and are kept apart here.
What was measured:
Assay in all cases: MIC, broth-microdilution (CLSI VET01-A4)
Assay type in all cases: cell-based
[1] = system: Mannheimia haemolytica MH 13093 (XB0472-6014.1, BRD field isolate)
Method in brief: (§1)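 Broth microdilution per CLSI VET01-A4 using doubling dilution series of compound. MIC taken as the lowest concentration with no turbidity visible to the unaided eye, interpreted per CLSI VET01-S3.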

[2] = system: Mannheimia haemolytica MH 13065 (XB0446-6003.9, BRD field isolate)
Method in brief: as §1

[3] = system: Pasteurella multocida PM 10775 (080130003051, BRD field isolate); conditions: Pasteurella multocida PM 10775
Method in brief: (§2)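 Doubling dilution series in microdilution trays; endpoint = lowest conc. without visible growth (no turbidity, unaided eye); interpretation per CLSI VET01-S3.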

[4] = system: Mannheimia haemolytica MH 10720 (154, BRD field isolate); conditions: Mannheimia haemolytica MH 10720; for MIC: read-out: MIC MH 10720
Method in brief: as §2

[5] = system: Mannheimia haemolytica MH 12587 (1071, BRD field isolate, macrolide-resistance: erm+, E+); conditions: for MIC MH 12587: Mannheimia haemolytica MH 12587, macrolide-resistant
Method in brief: as §2

[6] = system: Mannheimia haemolytica MH 6357 (M7/2, reference strain, cattle infection strain); conditions: Mannheimia haemolytica MH 6357; for MIC: read-out: MIC MH 6357
Method in brief: as §2

[7] = system: Mannheimia haemolytica MH 6374 (ATCC 33396, reference strain); conditions: Mannheimia haemolytica MH 6374; for MIC: read-out: MIC MH 6374
Method in brief: as §2

[8] = system: Pasteurella multocida PM 6267 (P 2225 (L386), reference strain, mouse infection strain); conditions: Pasteurella multocida PM 6267
Method in brief: as §2

[9] = system: Pasteurella multocida PM 12080 (IV102277-0093, BRD field isolate); conditions: Pasteurella multocida PM 12080; for MIC: read-out: MIC PM 12080
Method in brief: as §2

[10] = system: Pasteurella multocida PM 6391 (ATCC 43137, reference strain); conditions: Pasteurella multocida PM 6391; for MIC: read-out: MIC PM 6391
Method in brief: as §2

Structure (SMILES)	MIC [1] [µM]	MIC [2] [µM]	MIC PM 10775 [3]	MIC MH 10720 [4]	MIC MH 12587 [5] [µM]	MIC [6] [µM]	MIC [7] [µM]	MIC PM 6267 [8]	MIC PM 12080 [9]	MIC PM 6391 [10]	MIC [10] [µM]	MIC [9] [µM]	other results
CC(C)(C(NC(=O)c1ccc(C#Cc2ccc(CNCc3ccccn3)cc2)cc1)C(=O)NO)S(C)(=O)=O (stereo not shown) [C. 615]	0.8 (≈ 0.428 µg/mL)	1.6 (≈ 0.855 µg/mL)	<=0.1 μM	<=0.1 μM	1.6 (≈ 0.855 µg/mL)	1.6 (≈ 0.855 µg/mL)	0.4 (≈ 0.214 µg/mL)	<=0.1 μM	<=0.1 μM	<=0.1 μM	–	–	–
CC(C)(C(NC(=O)c1ccc(C#Cc2ccc(CNCc3ccco3)cc2)cc1)C(=O)NO)S(C)(=O)=O (stereo not shown) [C. 616]	0.4 (≈ 0.209 µg/mL)	0.2 (≈ 0.105 µg/mL)	<=0.1 μM	<=0.1 μM	0.8 (≈ 0.419 µg/mL)	0.8 (≈ 0.419 µg/mL)	0.2 (≈ 0.105 µg/mL)	<=0.1 μM	<=0.1 μM	<=0.1 μM	–	–	–
CC(C)([C@@H](NC(=O)c1ccc(C#Cc2ccc(CNCc3nccs3)cc2)cc1)C(=O)NO)S(C)(=O)=O [C. 620]	0.2 (≈ 0.108 µg/mL)	0.2 (≈ 0.108 µg/mL)	<=0.1 μM	<=0.1 μM	0.4 (≈ 0.216 µg/mL)	0.2 (≈ 0.108 µg/mL)	0.2 (≈ 0.108 µg/mL)	<=0.1 μM	<=0.1 μM	<=0.1 μM	–	–	–
C[C@@H](O)[C@H](NC(=O)c1ccc(C#Cc2ccc(CNCc3ccccc3)cc2)cc1)C(=O)NO [Compound 2]	0.8 (≈ 0.366 µg/mL)	1 (≈ 0.458 µg/mL)	<=0.1 μM	<=0.1 μM	0.8 (≈ 0.366 µg/mL)	0.2 (≈ 0.0915 µg/mL)	0.2 (≈ 0.0915 µg/mL)	<=0.1 μM	<=0.1 μM	<=0.1 μM	–	–	–
CC(C)C(NC(=O)c1ccc(C#Cc2ccc(CNC3CC3)cc2)cc1)C(=O)NO (stereo not shown) [Compound 144]	0.2 (≈ 0.0811 µg/mL)	–	<=0.1 μM	<=0.1 μM	0.2 (≈ 0.0811 µg/mL)	1.563 (≈ 0.634 µg/mL)	0.195 (≈ 0.0791 µg/mL)	<=0.1 μM	<=0.1 μM	–	0.098 (≈ 0.0397 µg/mL)	–	MIC MH 13065 [2]: <=0.1 μM
CCC(C)C(NC(=O)c1ccc(C#Cc2ccc(CNC3CC3)cc2)cc1)C(=O)NO (stereo not shown) [Compound 164]	0.4 (≈ 0.168 µg/mL)	0.4 (≈ 0.168 µg/mL)	<=0.1 μM	<=0.1 μM	0.8 (≈ 0.336 µg/mL)	0.391 (≈ 0.164 µg/mL)	0.781 (≈ 0.328 µg/mL)	<=0.1 μM	–	–	0.391 (≈ 0.164 µg/mL)	0.2 (≈ 0.0839 µg/mL)	–
C[C@@H](O)[C@H](NC(=O)c1ccc(C#Cc2ccc(CN3CCc4ccccc4C3)s2)cc1)C(=O)NO [Compound 194]	0.8 (≈ 0.392 µg/mL)	0.4 (≈ 0.196 µg/mL)	<=0.1 μM	<=0.1 μM	0.8 (≈ 0.392 µg/mL)	0.2 (≈ 0.0979 µg/mL)	0.8 (≈ 0.392 µg/mL)	<=0.1 μM	<=0.1 μM	<=0.1 μM	–	–	–
C[C@@H](O)[C@H](NC(=O)c1ccc(C#Cc2ccc(CNCc3ccccc3)s2)cc1)C(=O)NO [Compound 195]	0.4 (≈ 0.185 µg/mL)	0.4 (≈ 0.185 µg/mL)	<=0.1 μM	<=0.1 μM	0.8 (≈ 0.371 µg/mL)	0.2 (≈ 0.0927 µg/mL)	0.2 (≈ 0.0927 µg/mL)	<=0.1 μM	<=0.1 μM	<=0.1 μM	–	–	–
C[C@@H](O)[C@H](NC(=O)c1ccc(C#Cc2ccc(CN(C)Cc3ccccc3)s2)cc1)C(=O)NO [Compound 196]	0.8 (≈ 0.382 µg/mL)	0.8 (≈ 0.382 µg/mL)	<=0.1 μM	<=0.1 μM	1.6 (≈ 0.764 µg/mL)	0.4 (≈ 0.191 µg/mL)	0.8 (≈ 0.382 µg/mL)	<=0.1 μM	<=0.1 μM	<=0.1 μM	–	–	–
C[C@@H](O)[C@H](NC(=O)c1ccc(C#Cc2ccc(CN3CCc4ccccc4C3)o2)cc1)C(=O)NO [Compound 203]	0.8 (≈ 0.379 µg/mL)	0.8 (≈ 0.379 µg/mL)	<=0.1 μM	<=0.1 μM	1.6 (≈ 0.758 µg/mL)	0.8 (≈ 0.379 µg/mL)	0.8 (≈ 0.379 µg/mL)	<=0.1 μM	–	–	0.4 (≈ 0.189 µg/mL)	0.2 (≈ 0.0947 µg/mL)	–
C[C@@H](O)[C@H](NC(=O)c1ccc(C#Cc2ccc(CN(C)Cc3ccccc3)o2)cc1)C(=O)NO [Compound 205]	1.6 (≈ 0.738 µg/mL)	0.8 (≈ 0.369 µg/mL)	<=0.1 μM	<=0.1 μM	1.6 (≈ 0.738 µg/mL)	0.8 (≈ 0.369 µg/mL)	0.8 (≈ 0.369 µg/mL)	<=0.1 μM	–	–	0.4 (≈ 0.185 µg/mL)	0.2 (≈ 0.0923 µg/mL)	–
C[C@@H](O)[C@H](NC(=O)c1ccc(C#Cc2ccc([N+](=O)[O-])cc2)cc1)C(=O)NO [Compound 243, N-[(1S,2R)-2-hydroxy-1-(hydroxycarbamoyl)propyI]-4-[2-(4-nitrophenyl)ethynyl]benzamide]	1.6 (≈ 0.613 µg/mL)	0.4 (≈ 0.153 µg/mL)	–	–	–	0.2 (≈ 0.0767 µg/mL)	–	–	–	–	–	0.2 (≈ 0.0767 µg/mL)	MIC ([3]; read-out: MIC PM 10775): ≤ 0.1 µM; MIC [4]: ≤ 0.1 µM; MIC ([5]; Mannheimia haemolytica, read-out: MIC MH 12587): 0.8 µM (≈ 0.307 µg/mL); MIC ([7]; ATCC33396): 0.4 µM (≈ 0.153 µg/mL); MIC ([8]; read-out: MIC PM 6267): ≤ 0.1 µM; MIC ([10]; ATCC43137): 0.2 µM (≈ 0.0767 µg/mL)
C[C@@H](O)[C@H](NC(=O)c1ccc(C#Cc2ccc(CNCc3cccnc3)cc2)cc1)C(=O)NO [Compound 256]	0.8 (≈ 0.367 µg/mL)	0.8 (≈ 0.367 µg/mL)	<=0.1 μM	<=0.1 μM	1.6 (≈ 0.734 µg/mL)	0.4 (≈ 0.183 µg/mL)	0.4 (≈ 0.183 µg/mL)	<=0.1 μM	<=0.1 μM	<=0.1 μM	–	–	–
C[C@@H](O)[C@H](NC(=O)c1ccc(C#Cc2ccc(CNCc3ccnc(Cl)c3)cc2)cc1)C(=O)NO [Compound 257]	0.4 (≈ 0.197 µg/mL)	0.4 (≈ 0.197 µg/mL)	<=0.1 μM	<=0.1 μM	0.8 (≈ 0.394 µg/mL)	0.2 (≈ 0.0986 µg/mL)	0.2 (≈ 0.0986 µg/mL)	<=0.1 μM	<=0.1 μM	<=0.1 μM	–	–	–
C[C@@H](O)[C@H](NC(=O)c1ccc(C#Cc2ccc(CNCc3cccs3)cc2)cc1)C(=O)NO [Compound 260]	0.4 (≈ 0.185 µg/mL)	0.4 (≈ 0.185 µg/mL)	<=0.1 μM	<=0.1 μM	0.4 (≈ 0.185 µg/mL)	–	–	<=0.1 μM	<=0.1 μM	<=0.1 μM	–	–	MIC MH 6357 [6]: <=0.1 μM; MIC MH 6374 [7]: <=0.1 μM
Cc1ccc(CNCc2ccc(C#Cc3ccc(C(=O)N[C@H](C(=O)NO)[C@@H](C)O)cc3)cc2)cc1 [Compound 261]	0.8 (≈ 0.377 µg/mL)	0.4 (≈ 0.189 µg/mL)	<=0.1 μM	<=0.1 μM	0.8 (≈ 0.377 µg/mL)	0.2 (≈ 0.0943 µg/mL)	0.2 (≈ 0.0943 µg/mL)	<=0.1 μM	<=0.1 μM	<=0.1 μM	–	–	–
CC(C)C(NC(=O)c1ccc(C#Cc2ccc(CNCc3cccnc3)cc2)cc1)C(=O)NO (stereo not shown) [Compound 287]	0.8 (≈ 0.365 µg/mL)	0.8 (≈ 0.365 µg/mL)	<=0.1 μM	<=0.1 μM	0.8 (≈ 0.365 µg/mL)	0.4 (≈ 0.183 µg/mL)	0.4 (≈ 0.183 µg/mL)	<=0.1 μM	–	–	0.4 (≈ 0.183 µg/mL)	0.2 (≈ 0.0913 µg/mL)	–
CC(C)C(NC(=O)c1ccc(C#Cc2ccc(CNCc3ccnc(Cl)c3)cc2)cc1)C(=O)NO (stereo not shown) [Compound 288]	0.8 (≈ 0.393 µg/mL)	0.8 (≈ 0.393 µg/mL)	<=0.1 μM	–	1.6 (≈ 0.786 µg/mL)	0.4 (≈ 0.196 µg/mL)	0.8 (≈ 0.393 µg/mL)	<=0.1 μM	–	–	0.4 (≈ 0.196 µg/mL)	0.2 (≈ 0.0982 µg/mL)	MIC [4]: 0.2 µM (≈ 0.0982 µg/mL)
CC(C)C(NC(=O)c1ccc(C#Cc2ccc(CNCc3ccccn3)cc2)cc1)C(=O)NO (stereo not shown) [Compound 289]	0.8 (≈ 0.365 µg/mL)	0.8 (≈ 0.365 µg/mL)	<=0.1 μM	–	1.6 (≈ 0.73 µg/mL)	0.4 (≈ 0.183 µg/mL)	0.8 (≈ 0.365 µg/mL)	<=0.1 μM	–	–	0.4 (≈ 0.183 µg/mL)	0.4 (≈ 0.183 µg/mL)	MIC [4]: 0.2 µM (≈ 0.0913 µg/mL)

From patent US20230000813A1, “COMPOUND FOR THE TREATMENT OF BOVINE OR SWINE RESPIRATORY DISEASE” (Intervet Inc., priority 2016, published 2023)
